PubChem BioAssay AID1361 (SRMLSC, 2008)
Active and inactive are the calls of the source. The rule behind the calls is not given here.

Assay: mitochondrial fusion inhibitors, confirmation, cell-based, chemical genetic, wild-type and mutant (AID 1361)
Conditions: Cell-based mitochondrial fusion phenotype, imaging
[1] = mutant cells, measured here: mutant cell line IC50

Structure (SMILES)	IC50 (WT cells)	IC50 [1]
CCOc1ccc(C(C(=O)NC2CCCC2)N(Cc2ccccc2)C(=O)c2nsc(Cl)c2Cl)cc1 (centres undefined)	12 µM	> 25 µM
Cc1ccc(CNC(=O)CCNC(=O)c2ccco2)cc1	> 25 µM (inactive)	> 25 µM
CC1CCCN(c2nc(-c3cccnc3)nc3scc(-c4ccccc4)c23)C1 (centres undefined)	11.8 µM	> 25 µM
O=S(=O)(NCCOCCNS(=O)(=O)c1ccccc1)c1ccccc1	> 25 µM (inactive)	> 25 µM
CCc1c(C)nc2[nH]nc(-c3ccccc3)n2c1=O	> 25 µM (inactive)	> 25 µM
COc1ccc(NC(=S)NCCC(c2ccccc2)c2ccccc2)c(OC)c1	7.67 µM	> 25 µM
O=C1CCCCC1C(Nc1ccc(Br)cc1)c1ccccc1 (centres undefined)	20.5 µM	> 25 µM
CCOC(=O)c1c(C)[nH]c(C)c1C(=O)COC(=O)c1cc2ccccc2cc1O	17.2 µM	> 25 µM
O=c1c2ccccc2[nH]c(=S)n1-c1ccc2c(c1)OCO2	> 25 µM (inactive)	> 25 µM
CCOC(=O)c1c(NC(=O)c2cccs2)sc2c1CCCC2	> 25 µM (inactive)	> 25 µM
COc1ccc(OCC(O)CNCc2ccco2)cc1 (centres undefined)	> 25 µM (inactive)	> 25 µM
O=C1NC(Nc2nc3ccccc3s2)(C(F)(F)F)C(=O)N1C1CCCCC1 (centres undefined)	20 µM	> 25 µM
COc1ccc(S(=O)(=O)N2c3ccccc3OCC2C(C)(C)C)cc1 (centres undefined)	18.5 µM	> 25 µM
COc1ccc(CNC(=O)C2CC(=O)N(c3ccc(OCC(=O)N4C(C)CCCC4C)cc3)C2)cc1 (centres undefined)	> 25 µM (inactive)	> 25 µM
O=C(N/N=C/c1c[nH]c2ccccc12)c1[nH]c2ccc(Br)cc2c1-c1ccccc1	3.58 µM	14.9 µM
O=C(NC(=S)Nc1ccc(S(=O)(=O)NC2CCCCC2)cc1)c1cccs1	17.6 µM	> 25 µM
O=C(O)CCc1ccc(-c2ccc(F)cc2)n1Cc1ccco1	> 25 µM (inactive)	> 25 µM
CCCCN(CCCC)C1=Nc2ccccc2N/C1=C(/C#N)C(=O)OCC	6.94 µM	> 25 µM
OC(CC1CC12c1ccccc1-c1ncccc12)(c1ccccc1)c1ccccc1 (centres undefined)	13.8 µM	> 25 µM
N#CC1=C(N)NC(SCC(=O)c2ccc(Br)cc2)=C(C#N)C12CCCCC2	19.4 µM	> 25 µM
Cc1cc(C)cc(NC(=S)NCCSc2ccc(Cl)cc2)c1	4.68 µM	6.34 µM

Structure (SMILES)	IC50 (WT cells)	IC50 [1]
CCCCCCn1c(N)c(C(=O)NCCN2CCOCC2)c2nc3ccccc3nc21	> 25 µM (inactive)	> 25 µM
Cc1[nH]c2ccc(F)cc2c1CCN(Cc1ccco1)C(=S)NC(C)(C)C	12.5 µM	> 25 µM
Cc1csc(NC(=O)c2cccn2C)n1	> 25 µM (inactive)	> 25 µM
COc1cc2c(cc1NC(=O)CSc1nc3ccccc3[nH]1)oc1ccccc12	11.2 µM	> 25 µM
Cc1ccc(-n2c(-c3ccccc3)cc(/C=N/NC(=O)CC#N)c2-c2ccccc2)cc1	> 25 µM (inactive)	> 25 µM
c1ccc(-c2nnc(CSc3nnc(-c4ccncc4)n3Cc3ccco3)o2)cc1	> 25 µM (inactive)	> 25 µM
Cc1ccc(/C=N/NC(=O)COc2ccccc2-c2ccccc2)cc1	14.9 µM	> 25 µM
N#C/C(=C\c1cccc(NC(=O)c2ccccc2Cl)c1)C(=O)NCCc1ccccc1	10.9 µM	> 25 µM
Cc1ccc(-c2nn(-c3ccccc3)cc2CSC(=N)N)cc1	> 25 µM (inactive)	> 25 µM
COc1ccc(Cc2nc3ccc(S(=O)(=O)N4CCOCC4)cc3[nH]2)cc1	> 25 µM (inactive)	> 25 µM
N#C[C@H]1[C@H](c2ccccc2)[C@](C#N)(C(=O)c2ccccc2)[C@@H]2C=Cc3ccccc3N21	> 25 µM (inactive)	> 25 µM
COCC(C)n1c(SCc2ccc(OC)c(F)c2)nc2ccccc2c1=O (centres undefined)	15.3 µM	> 25 µM
Cc1ccc(SCC(=O)O/N=C(\N)c2cccc([N+](=O)[O-])c2)cc1	> 25 µM (inactive)	> 25 µM
CCCCNC(=O)C1=C(N)C(C(=O)Nc2ccc(C)c(S(=O)(=O)N3CCCCC3)c2)SC1=Nc1ccc(C)cc1C (centres undefined)	> 25 µM (inactive)	> 25 µM
Cc1cc(C)c(OCC(=O)Nc2nnc(-c3ccco3)o2)c(C)c1	> 25 µM (inactive)	> 25 µM
CCCCSc1nnc(-c2ccc(C)cc2)c2ccccc12	9.57 µM	23.1 µM
CCSc1ccc2cc(OC)ccc2[n+]1CC	23.1 µM	> 25 µM
Cc1nc(N2CCCCC2C)c2c(C)c(C(=O)Nc3cccc(C(F)(F)F)c3)sc2n1 (centres undefined)	10.6 µM	> 25 µM
Cc1cccc(NC(=S)N=Nc2c(O)[nH]c3ccccc23)c1	> 25 µM (inactive)	> 25 µM
COc1ccc(C2C3=C(CC(C)(C)CC3=O)Oc3ncn(Cc4ccccc4)c(=N)c32)cc1 (centres undefined)	12.6 µM	> 25 µM
CC(C)N1C(=O)/C(=C\c2nc3ccccc3c(=O)n2-c2ccccc2)c2ccccc21	18.8 µM	> 25 µM
